In a melting point compilation (Tetko et al.; mined from patent text by program, amines drawn as free bases though some values may be those of a salt) one finds melting point data, which are given here for 85 molecules.

As a reminder, the melting point is the temperature, or range, at which the solid turns liquid.

Molecule `O=C(O)COc1nnc(C(F)(F)F)s1` had a melting point of 58 °C. Then `O=S(=O)(c1ccccc1)c1c[nH]c2ccc(Br)cc12`, with 176 to 178 °C. The molecule `COc1ccc(N2CCCn3c2nc2c(Cl)ccc(C(OC)C(F)(F)F)c23)c(C)n1` (stereo not given) showed a melting point of 144 to 146 °C. Under `COc1cc2c(c3c1OC(C)(C)C3)C(c1cccc(-c3ccc(NC(=O)C(F)(F)F)cc3)c1)=NC(C)(C)C2` stands 149 to 154 °C. Under `CCOC(=O)Nc1cccc(OC)c1[N+](=O)[O-]` stands 131 to 132 °C. Regarding `O=C1NC(=O)C(CCCOc2ccc(F)cc2)S1` (stereo not given), the melting point lay within 119 to 121 °C. Then `COc1ccc(N2CCN(CCN3CCC(c4noc5cc(F)ccc45)CC3)C2=O)cc1`, with 154 to 157 °C; and `C[C@@H](NC(=O)c1c[nH]c2ncc(-c3nn(C)c4cc(F)ccc34)nc12)C(=O)N1CC(C#N)C1`, with 270 to 277 °C; and `COc1ccc(-c2cc(N3CCOCC3)cc(=O)o2)cc1`, with 212 to 213 °C. In the case of `Cc1ccccc1OS(=O)(=O)c1ccc(N2CCCNC2=O)cc1`, the melting point was 161 to 163 °C. Then `C[C@@H]1S[C@@H](C(=O)Nc2ccc(CN3C(=O)CN(C)C3=O)cc2)Cc2cc3c(cc2C1=O)OCO3`, with 228 to 230 °C; and `c1ccc(C2CC3(CC(c4ccccc4)N2)OCCO3)cc1` (stereo not given), with 125 to 127 °C; and `CN(C)CCN1CCC(=Cc2cc(C(C)(C)C)c(O)c(C(C)(C)C)c2)C1=O`, with 150 °C.

For `CCOP(=O)(OCC)C(Nc1ncc(-c2ccccc2)s1)P(=O)(OCC)OCC`, the melting point was in the range of 151 to 153 °C. Under `COC(=O)c1ncccc1C(=O)c1ccc(-n2ccnc2)cc1` stands 150 to 157 °C. Molecule `CCOC(=O)c1ccc(NC(=O)NC2CN(C(=O)c3cccs3)c3ccc(C)cc3N(CC(=O)c3cccs3)C2=O)cc1` (stereo not given) registered a melting point of 244 °C. Take `N#CC(=C(Nc1cc(C(F)(F)F)cc(C(F)(F)F)c1)NC1CCCC1)S(=O)(=O)c1ccc(Cl)cc1`: the melting point lay in the range of 199 to 200 °C.

The molecule `COc1ccc(Cn2c(=O)c3ccccc3n(CCCCCl)c2=O)cc1` yielded a melting point of 123 to 124 °C. Under `O=c1c2ccc3[nH]ccc3c2ccn1Cc1ccc(F)cc1` stands 171 to 173 °C; under `CSc1c2c3c(cccc3n1C)C1C=C(C)CN(C)C1C2` (stereo not given), 115 to 116 °C; under `Cn1ccc2c(-n3cc(C(=O)NC(=N)N)c4cccnc43)ncnc21`, more than 260 °C. Consider `CCNC(=O)NCCCNn1c(COCC)nc2c(N)nc3c(c21)CCCC3`, for which the melting point is 189 to 191 °C.

The molecule `CS(=O)(=O)c1ccc(-n2nc(C(F)(F)F)cc2-c2ccc(-c3cocn3)cc2)cc1F` registered a melting point of 164 to 166 °C. Under `CC(C)[C@@H]1CC[C@@H](C)C[C@H]1OCC(=O)N(C)CCO` stands 65 to 66 °C. Under `O=C1NCCN(C(=O)OCc2ccccc2)C1Cc1ccccc1` (stereo not given) stands 125 to 128 °C; under `O=C(O)c1ccc(-c2ccc3oc([N+](=O)[O-])c(-c4ccccc4)c3c2)cc1`, 259 to 261 °C.

On to `CCN(CC)CCOc1ccc(N2C(=O)C(c3ccccc3)=C3CCCCC32)cc1` (stereo not given), for which the melting point stood at 81 °C. Then `CC(C)(C)c1ccc(S(=O)(=O)Oc2ccc(C(C)(C)c3ccc(OS(=O)(=O)c4ccc(C(C)(C)C)cc4)cc3)cc2)cc1`, with 124 to 127 °C; and `COC(=O)c1ccc(CCC2CNc3nc(NC(=O)C(C)(C)C)nc(O)c3C2)[nH]1` (stereo not given), with 246 to 248 °C; and `COC(=O)Cc1ccc2c(c1)CCc1ccccc1S2`, with 103 to 105 °C.

Turning to `CCC1(C)SC(=NOC(=O)NC)N=C1C` (stereo not given), the melting point fell in the range of 115 to 117 °C. Then `CC(C)(C)[C@H]1N(c2ccc(C#N)c3ccccc23)C(=O)[C@@H]2C[C@@H](OCc3ccccc3)CN21`, with 155 to 157 °C; and `Cc1ncc(CSC(=O)c2cccc(C(=O)SCc3cnc(C)c4c3COC(C)(C)O4)c2)c2c1OC(C)(C)OC2`, with 125 to 127 °C. The molecule `CC1(C)Cc2cc(O)c3c(c2C(c2cccc(-c4ccncc4)c2)=N1)CC(C)(C)O3` had a melting point of 141 to 149 °C.

`O=C1c2ccc(N3CCCCC3)c3cc(Br)cc(c23)C(=O)N1O` displayed a melting point of 134 to 136 °C. Then `CCNC(=O)CC1CCN(Cc2cnc3c(C)c(NC(=O)c4ccc(-c5ccc(F)cc5)cc4)ccc3c2)CC1`, with 243 to 245 °C; and `CNC(=S)Nc1ccc(NNC=O)cc1`, with 176 to 178 °C; and `O=[N+]([O-])c1ccc(NCC23CCCN2CCC3)c2ccccc12`, with 143 to 144 °C. Under `O=C(O)c1cccc(Oc2cccc(-c3nn(Cc4ccc(C(F)(F)P(=O)(O)O)c(Cl)c4)c(=Nc4ccc(Cl)c(Cl)c4)s3)c2)c1` stands 212 to 215 °C; under `CCC1=CC=CC(CC)(c2ccncc2)C1c1c(OC(=O)C(C)(C)C)n2n(c1=O)CCOCC2` (stereo not given), 146 to 147 °C. Under `CCCCCCCC(=O)NC(=O)OCc1nc(C(C)C)c(Sc2cc(Cl)cc(Cl)c2)n1CC` stands 99 to 101 °C; under `CC(=O)Nc1ccc(F)cc1SCC#N`, 97 to 100 °C; under `CC(C)(C)OC(=O)CN(CC(=O)O)CC(=O)OC(C)(C)C`, 76 to 82 °C. `CC(=O)NCCc1cccc2ccc(O)cc12` returned a melting point of 125 to 126 °C. Under `Cc1nn(C2=C(F)CC(F)(C#N)C=C2)c(=O)[nH]c1=O` (stereo not given) stands 214 °C; under `CC(C)(C)C(=O)c1c[nH]c2ncc(-c3cc(OCCS(C)(=O)=O)cc(N4CCCC4)c3)nc12`, 230 to 232 °C. `CCN1c2ncc(CNc3cccc(N)c3)cc2C(=O)N(C)c2ccc(Cl)nc21` yielded a melting point of 188 to 190 °C.

`CCCCC1=NSc2ccccc2N1Cc1ccc(-c2ccccc2C(=O)O)cc1`: the melting point lay within 215 to 217 °C. Under `CC1(C)CCC(C)(C)c2cc(C(N)C(=O)Nc3ccc(C(=O)O)cc3)ccc21` (stereo not given) stands 203 to 204 °C; under `CCOC(=O)N[C@H]1CC=C[C@H]2CNC(=O)[C@H]12` (racemic), 160 to 164 °C; under `CSc1snc(OCC#CI)c1C#N`, 145 to 146 °C. Consider `COc1ccc(NC(=O)CCCCCC(C)=O)cc1`, for which the melting point lay within 106 to 107 °C. Under `Cn1ncc2c1CCC(=CO)C2=O` stands 93 to 95 °C; under `COc1ccccc1C(=O)NS(=O)(=O)c1ccc(N)cc1`, 180 to 182 °C; under `CC(=O)C(=[N+]=[N-])C(=O)c1ccccn1`, 69 to 74 °C. Then `O=C(NC1CCCCC1)OC1CCCCC1`, with 77 to 78 °C; and `Cc1oc(C(C)(C)C)nc1COc1ccc(CC(OC(C)C)C(=O)O)c2sccc12` (stereo not given), with 166 to 167 °C. Under `C#CCOc1c(OC)cc(/C=C/C(=O)/C=C/c2cc(OC)c(OC)c(OC)c2)cc1OC` stands 118 to 120 °C; under `Cc1cc(Cl)c(C(=O)c2ccccc2)c(Cl)c1`, 75.5 to 76.5 °C; under `O=C(O)Cc1ccc2ccn(Cc3ccccc3)c2c1`, 109 to 111 °C. For `CSc1nc(Cl)c(-c2ccc(C)cc2)c(NS(=O)(=O)c2ccc(C(C)(C)C)cc2)n1`, the melting point lay within 178 to 182 °C. `CC1(C)CCC(C)(C)C2=C1C=C(CC#Cc1ccc(C(=O)O)cc1)CC2(O)OCc1ccc(C(F)(F)F)cc1` (stereo not given) returned a melting point of 222 °C. As to `C=Cc1cc(OP(=O)(O)O)cc2nc(-c3ccc(OP(=O)(O)O)c(F)c3)oc12`, the melting point was more than 180 °C.

For `O/N=C(\CCN1CCN(c2ccccn2)CC1)c1ccc(Cl)cc1`, the melting point is 188 to 190 °C.

Molecule `Nc1c(Br)cc(C2=NNC(=O)CC2)cc1Br` gave a melting point of 212 to 214 °C. In turn, `O=[N+]([O-])c1ccc(-c2nn(-c3ccccc3)cc2CO)o1` returned a melting point of 148 to 149 °C. The molecule `OC1CSC(Oc2cc(-c3ccncc3)cnc2F)C(O)C1O` (stereo not given) yielded a melting point of 98 to 102 °C. Then `CN1CCN(C2=Nc3cscc3C(=CC#N)c3cscc32)CC1`, with 148 to 151 °C; and `CC(C)(C)OC(=O)n1cc(C(=O)c2ccn3c2CSC3c2cccnc2)c2ccccc21` (stereo not given), with 150 to 152 °C. Under `N#Cc1ccccc1N=Nc1ccc(O)cc1` stands 201 to 203 °C. Under `COc1nc(C#N)c(C#N)[nH]1` stands 137 to 138 °C.

Molecule `CC(=O)c1cccc(-c2ncccc2OC2SCC(O)C(O)C2O)c1` (stereo not given) returned a melting point of 128 to 133 °C. In the case of `N#CC(=C(Nc1cc(C(F)(F)F)cc(C(F)(F)F)c1)NC1CCC1)S(=O)(=O)c1ccc(Cl)cc1`, the melting point lay in the range of 190 to 193 °C.

Molecule `COC(=O)c1cc(C(=O)O)cc(-n2cccc2)c1` returned a melting point of 178 to 179 °C. Then `CNC(=C[N+](=O)[O-])NCCc1nnc(NCCCOc2cccc(CN3CCCCC3)c2)n1C`, with 110 to 112 °C. Then `CC(=O)NC(C(=O)NCc1ccccc1)c1cn(S(=O)(=O)N(C)C)cn1` (stereo not given), with 145 to 147 °C; and `Cc1cc(-c2noc(C(F)(F)F)n2)cc(C)c1OCCCc1ccc(=O)[nH]c1`, with 128 to 130 °C; and `CC(=O)Nc1ccc(-n2ccnc2SCc2ccccc2N2CCOCC2)nc1`, with 164 to 167 °C.

`COC(=O)COc1nc(Cl)c(Cl)cc1Cl` showed a melting point of 99 to 103 °C. Under `CC12CCC(O)CC1CCC1C2CCC2(C)C(OCCO)CCC12` (stereo not given) stands 181 to 183 °C; under `Cc1cc(NC(=O)C(C)(O)COc2cccc(C(F)(F)F)c2)ccc1[N+](=O)[O-]` (stereo not given), 84 to 87 °C. Under `C/C(=N\OCCBr)[C@H]1CC[C@H]2[C@@H]3CCC4=CC(=O)CC[C@]4(C)[C@H]3CC[C@]12C` stands 96 to 98 °C; under `Cc1ccc(NC(=O)c2ccc(CN3CCN(C)CC3)c(C(F)(F)F)c2)cc1Nc1nc(-c2ccncc2)cs1`, 226 to 227 °C; under `CC(=O)c1c(-c2ccc(Cl)cc2)c(-c2ccc(Cl)cc2)n[nH]c1=O`, 267 to 269 °C. Then `COc1cnc(NCCNCC(O)COc2ccccc2)c2ccccc12` (stereo not given), with 152 to 153 °C.
